Reference: patent US11292767B2, “Heterocyclic inhibitors of MCT4” (Vettore, LLC, priority 2016, dated 2022)

Tests used:
[1] = Pharmacokinetic assay in rat (IV 3 mg/kg, PO 10 mg/kg); assay type: in vivo; details: male, Sprague-Dawley, plasma, read-out: Rat F (%)
Text: Pharmacokinetic Assays in Mouse and Rat
The following are assays that may be used to evaluate the pharmacokinetic properties of Formula (I) in mouse or rat. The assays follow a common procedure recited below.
1. […] For PO (oral gavage), DMSO/PEG400 (10:90). Formulations freshly prepared on the day of dosing or prior to dosing. Storage at room temperature.
2. Test Species: For Mouse: Male CD1 strain, approximately 6-8 weeks in age, approximately 20-30 g. For Rat: Male Sprague-Dawley strain, approximately 6-8 weeks in age, approximately 200-300 g.
3. Dose Level: For IV, 3 mg/kg. For PO, 10 mg/kg.
4. Number of animals: 3 per assay.
5. PK time points: For IV (plasma): 5 min, 15 min, 1, 2, 4, 6, 8, 24 h post dose. For PO (plasma): 15 min, 30 min, 1, 2, 4, 6, 8, 24 h post dose.
6. Blood Sample Collection and Processing. Blood was collected (˜0.2 mL per time point) from jugular vein. Blood of each sample was transferred into plastic micro centrifuge tubes containing anticoagulant of EDTA-K2. Blood samples were centrifuged at 2,000 g for 5 minutes at 4° C. to obtain plasma.
7. Samples Analysis: Plasma samples were analyzed using LC/MS/MS method, and pharmacokinetic parameters (half-life: t1/2; oral bioavailability: F; volume of distribution: Vss).

[2] = Metabolic stability in rat liver microsomes (in vitro t1/2); assay type: in vitro ADME; details: rat liver microsomes 0.5 mg/mL, 2 μM compound, % remaining at 60 min
Description: (§1) Metabolic Stability Assays The following are assays that may be used to evaluate the metabolic stability of compounds of Formula (I) in human, rat, or mouse microsomes. The assays follow a common procedure recited below. 1. […] Two separated experiments were performed as follows. a) With NADPH: 10 μL of 20 mg/mL liver microsomes and 40 μL of 10 mM NADPH were added to the incubations. […] The final concentration of microsomes was 0.5 mg/mL. 3. The reaction was started with the addition of 4 μL of 200 μM control compound or test compound solutions. Verapamil was used as positive control in this study. The final concentration of test compound or control compound was 2 μM. 4. Aliquots of 50 μL were taken from the reaction solution at 0, 15, 30, 45 and 60 min. […] Samples were centrifuged at 3,220 g for 40 minutes. A 90 μL aliquot of the supernatant was mixed with 90 μL of ultra-pure H2O and then used for LC-MS/MS analysis. 5. Data analysis. All calculations were carried out using Microsoft Excel. Peak areas were determined from extracted ion chromatograms. The slope value, k, was determined by linear regression of the natural logarithm of the remaining percentage of the parent drug vs. incubation time curve. The in vitro half-life (in vitro t1/2) was determined from the slope value: in vitro t1/2=−(0.693)/k.

[3] = Metabolic stability in human liver microsomes (in vitro t1/2); assay type: in vitro ADME; details: human liver microsomes 0.5 mg/mL, 2 μM compound; for Human microsome % 60 min: % remaining at 60 min; for Human microsome t1/2, min: in vitro t1/2
Description: as §1

[4] = Metabolic stability in mouse liver microsomes (in vitro t1/2); assay type: in vitro ADME; details: mouse liver microsomes 0.5 mg/mL, 2 μM compound; for Mouse microsome % 60 min: % remaining at 60 min; for Mouse microsome t1/2, min: in vitro t1/2
Description: as §1

CFA-induced arthritis [5] = assay: Adjuvant-induced arthritis model in rat: Mechanical Allodynia test (MA); assay type: in vivo; details: SD rat, PO 3 days post CFA, compared to dexamethasone
CFA-induced arthritis [6] = assay: Adjuvant-induced arthritis model in rat: Difference of Weight Bearing test (DWB); assay type: in vivo; details: SD rat, PO 3 days post CFA, compared to dexamethasone

Row | SMILES | bioavailability [1] [%] | Rat microsome % 60 min [2] [%] | Human microsome % 60 min [3] [%] | Mouse microsome % 60 min [4] [%] | Human microsome t1/2, min [3] | Mechanical Allodynia (Von Frey), Minimal Efficacious Dose (CFA-induced arthritis [5]) [mg/kg] | Difference in Weight Bearing, Minimal Efficacious Dose (CFA-induced arthritis [6]) [mg/kg] | Mouse microsome t1/2, min [4]
1 | Cc1ccccc1-n1nc(COC(C)(C)C(=O)O)cc1-c1cccc(OC2CCC2)c1 [Example 161, 2-([5-(3-Cyclobutoxyphenyl)-1-(2-methylphenyl)-1H-pyrazol-3-yl]-methoxy)-2-methylpropanoic acid] | 61 | 80 | 82 | 99 | – | ≤10 | ≤10 | ∞
2 | CC(C)(OCc1cc(-c2cccc(OC3CCC3)c2)n(-c2ccccc2Cl)n1)C(=O)O [Example 175, 2-([1-(2-Chlorophenyl)-5-(3-cyclo-butoxyphenyl)-1H-pyrazol-3-yl]-methoxy)-2-methylpropanoic acid] | 48 | 87 | 83 | 94 | – | >10 | >10 | –
3 | CC(C)COc1ncc(-c2cc(COC(C)(C)C(=O)O)nn2Cc2ccccc2Cl)s1 [Example 132, 2-([1-[(2-Chlorophenyl)methyl]-5-[2-(2-methylpropoxy)-1,3-thiazol-5-yl]-1H-pyrazol-3-yl]methoxy)-2-methylpropanoic acid] | – | 70 | 70 | 64 | – | – | – | –
4 | CC[C@@](C)(OCc1cc(-c2cccc(OC)c2)n(Cc2ccccc2Cl)n1)C(=O)O [Example 121, (2R)-2-([1-[(2-chlorophenyl)methyl]-5-(3-methoxyphenyl)-1H-pyrazol-3-yl]methoxy)-2-methylbutanoic Acid] | – | 61 | 82 | 81 | – | – | – | –
5 | Cn1ncc2cccc(-n3nc(COC(C)(C)C(=O)O)cc3-c3cccc(OCC4CCC4)c3)c21 [Example 168, 2-([5-[3-(cyclobutylmethoxy)phenyl]-1-(1-methyl-1H-indazol-7-yl)-1H-pyrazol-3-yl]methoxy)-2-methylpropanoic acid] | – | 81 | 78 | 81 | – | – | – | –
6 | CC(C)(C)COc1cccc(-c2cc(COC(C)(C)C(=O)O)nn2-c2ccccc2N2CCC2)c1 [Example 155, 2-([1-[2-(Azetidin-1-yl)phenyl]-5-[3-(2,2-dimethylpropoxy)phenyl]-1H-pyrazol-3-yl]methoxy)-2-methylpropanoic acid] | – | 70 | 62 | 37 | – | – | – | –
7 | COc1cccc(-c2cc(COC(C)(C)C(=O)O)nn2Cc2ccccc2OC(C)C)c1 [Example 140, 2-([5-(3-Methoxyphenyl)-1-[[2-(propan-2-yloxy)phenyl]methyl]-1H-pyrazol-3-yl]methoxy)-2-methylpropanoic acid] | – | 48 | 67 | 62 | – | – | – | –

Now from value to molecule, other results behind:

Row | bioavailability [1] [%] | Rat microsome % 60 min [2] [%] | Human microsome % 60 min [3] [%] | Mouse microsome % 60 min [4] [%] | Human microsome t1/2, min [3] | SMILES | Mechanical Allodynia (Von Frey), Minimal Efficacious Dose (CFA-induced arthritis [5]) [mg/kg] | Difference in Weight Bearing, Minimal Efficacious Dose (CFA-induced arthritis [6]) [mg/kg] | Mouse microsome t1/2, min [4]
8 | 52 | 69 | 65 | 81 | – | CCCn1ncc2ccc(-c3cc(COC(C)(C)C(=O)O)nn3-c3ccccc3N3CCC3)cc21 [Example 246, 2-([1-[2-(Azetidin-1-yl)phenyl]-5-(1-propyl-1H-indazol-6-yl)-1H-pyrazol-3-yl]methoxy)-2-methylpropanoic acid] | – | – | –
9 | 49 | 98 | 88 | – | – | CCOc1cc(OCC)cc(-c2cc(COC(C)(C)C(=O)O)nn2-c2ccccc2Cl)c1 [Example 180, 2-([1-(2-Chlorophenyl)-5-(3,5-diethoxy-phenyl)-1H-pyrazol-3-yl]methoxy)-2-methylpropanoic acid] | >10 | >10 | ∞
10 | 98 | 83 | 77 | 63 | – | COc1cc(OC)cc(-c2cc(COC(C)(C)C(=O)O)nn2-c2ccccc2N2CCC2)c1 [Example 251, 2-((1-(2-(Azelidin-1-yl)phenyl)-5-(3,5-dimethoxyphenyl)-1H-pyrazol-3-yl)methoxy)-2-methylpropanoic acid] | – | – | –
11 | 53 | 73 | 91 | 98 | – | COc1cc(OC)cc(-c2cc(COC(C)(C)C(=O)O)nn2Cc2ccccc2Cl)c1 [Example 224, 2-([1-[(2-Chlorophenyl)methyl]-5-(3,5-dimethoxyphenyl)-1H-pyrazol-3-yl]-methoxy)-2-methylpropanoic acid] | ≤10 | ≤10 | –
12 | – | 32 | 62 | 33 | – | CCOc1ccccc1Cn1nc(COC(C)(C)C(=O)O)cc1-c1cc(Cl)cc(OC)c1 [Example 196, 2-([5-(3-Chloro-5-methoxyphenyl)-1-[(2-ethoxyphenyl)methyl]-1H-pyrazol-3-yl]methoxy)-2-methylpropanoic acid] | – | – | –
13 | – | 90 | 110 | 94 | ∞ | CC[C@@](C)(OCc1cc(-c2cc(OC)cc(OC)c2)n(-c2ccccc2Cl)n1)C(=O)O [Example 222, (2R)-2-([1-(2-Chlorophenyl)-5-(3,5-dimethoxyphenyl)-1H-pyrazol-3-yl]-methoxy)-2-methylbutanoic acid] | – | – | –
14 | – | 87 | – | 92 | ∞ | Cc1ccccc1-n1nc(COC(C)(C)C(=O)O)cc1-c1cccc(OC2CC2)c1 [Example 188, 2-([5-(3-Cyclopropoxyphenyl)-1-(2-methylphenyl)-1H-pyrazol-3-yl]-methoxy)-2-methylpropanoic acid] | – | – | –
15 | – | 2 | 32 | 32 | – | CC(C)(OCc1cc(-c2cccc(OC3CC3)c2)n(Cc2ccccc2N2CCCC2)n1)C(=O)O [Example 202, 2-([5-(3-Cyclopropoxyphenyl)-1-[[2-(pyrrolidin-1-yl)phenyl]methyl]-1H-pyrazol-3-yl]methoxy)-2-methylpropanoic acid] | – | – | –
16 | – | 72 | 66 | 70 | – | CC(C)(OCc1cc(-c2cccc(OCC3CCC3)c2)n(-c2ccccc2Cl)n1)C(=O)O [Example 178, 2-([1-(2-Chlorophenyl)-5-[3-(Cyclobutylmethoxy)phenyl]-1H-pyrazol-3-yl]methoxy)-2-methylpropanoic acid] | – | – | –
17 | 97 | 94 | 98 | 97 | – | Cn1ncc2cccc(-n3nc(COC(C)(C)C(=O)O)cc3-c3cccc(OC4CC4)c3)c21 [Example 191, 2-([5-(3-Cyclopropoxyphenyl)-1-(1-methyl-1H-indazol-7-yl)-1H-pyrazol-3-yl]methoxy)-2-methylpropanoic acid] | >10 | >10 | –
18 | – | 90 | 75 | 87 | – | CC(C)(C)COc1cccc(-c2cc(COC(C)(C)C(=O)O)nn2-c2ccccc2Cl)c1 [Example 177, 2-([1-(2-chlorophenyl)-5-[3-(2,2-dimethylpropoxy)phenyl]-1H-pyrazol-3-yl]methoxy)-2-methylpropanoic acid] | – | – | –
